In the assay the test system is cholecyst contraction induced by yolk. The assay is described as follows: Inhibition of yolk-induced gallbladder (cholecyst) mass decrease in mice. The format is in vivo, male mice from the strain NMRI. To be noted: Mus musculus, po. Here is the method: The effect of the bicycloheptane derivatives used according to the invention is verified on the following test. Known spasmolytics 1-[3',4'-di-(ethoxy)-benzyliden]-6,7-di-- [ethoxy] -1,2,3,4-terra-[hydro] -isoquinoline {drotaverine} and 1- [3',4'-di-(methoxy)-benzyl]-6,7-di-[methoxy] -isoquinoline {papaverine} are employed for comparison. (These spasmolytics are most often used in the therapeutical practice).
The tests were performed on male mice from the strain NMRI in groups consisting of 8 to 12 animals. At the beginning of the test, the animals were weighing 20 to 30 g.
The animals were starved for 24 hours before beginning the first treatment, however, they were allowed to consume water ad libitum. The compounds to be tested and the carrier (0.4% solution of methyl cellulose) were administered perorally in a volume of 10 ml/kg.
45 minutes after this treatment, an emulsion of 30% of yolk in 0.4% methyl cellulose solution was administered perorally. Each mouse consumed 0.5 ml of the emulsion. The animals of the control group consumed 0.5 ml of the carrier i.e. 0.4% methyl cellulose solution.
After 15 minutes, cervicalis dislocatio was employed, the gallbladders were removed and weighed, one by one. The effect of the compounds tested was given as the inhibition of the cholecyst mass decrease induced by yolk, in percentage. […] Table

Where [1] appears, read: dose causing 50% inhibition of the cholecyst mass decrease induced by yolk, p.o. 45 min before 30% yolk emulsion, gallbladders weighed 15 min later, linear regression, read-out: ID50 p.o.

Read-outs that look alike come from different tables or passages of the source.

As to `CN(C)CCO[C@]1(c2ccccc2)C[C@H]2CC[C@]1(C)C2(C)C.O=C(O)/C=C/C(=O)O` [(1R,2S,4R)-(-)-2-[Phenyl]-2-[2'-(dimethylamino)-ethoxy]-1,7,7-tri-[methyl] -bicyclo[2.2.1]heptane (E)-2-butenedioate], the ED50 under setting [1] stood at 7 mg/kg.
On the same count and under the same terms, next, `CC1(C)[C@@H]2CC[C@@]1(C)[C@@](OCC[N+](C)(C)[O-])(c1ccccc1)C2` [(1R,2S,4R)-(-)-2-[Phenyl]-2-[2'-(dimethylamino)-ethoxy]-1,7,7-tri-[methyl]-bicyclo[2.2.1]heptane-N-oxide (E)-2-butenedioate]: above 100 mg/kg; `CN(C)CCO[C@@]1(c2ccccc2)C[C@@H]2CC[C@@]1(C)C2(C)C.O=C(O)/C=C/C(=O)O` [(1S,2R,4S)-(+)-2-[Phenyl] -2-[2'-(dimethylamino)-ethoxy]-1,7,7-tri-[methyl] -bicyclo[2.2.1]heptane (E) -2-butenedioate]: above 100 mg/kg; `CCOc1ccc(/C=C2\NCCc3cc(OCC)c(OCC)cc32)cc1OCC` [Drotaverine, 1-[3',4'-di-(Ethoxy)-benzyliden]-6,7-di-[ethaxy]-1,2,3,4-tetra-[hydro]-isoquinoline, reference compound]: above 100 mg/kg.
Regarding `COc1ccc(Cc2nccc3cc(OC)c(OC)cc23)cc1OC` [Papaverine, 1-[3',4'-di-(Methoxy)-benzyl]-6,7-di-[methoxy]-isoquinoline, reference compound], the ED50 (read-out: ID50 p.o. in mg/kg) was above 100 mg/kg.

Values taken from EP0694299B1, “The use of( a) bicycloheptane derivative(s)” (EGIS GYOGYSZERGYAR RT., priority 1994, dated 1996).
